In general, pEC50 refers to the EC50 on a negative log10 scale, so that one unit is a factor of ten.

The record followed here is patent US11591341B2 (ALIGOS THERAPEUTICS, INC., priority 2019, dated 2023).

pEC50: −log10 of the molar value.

The test system of this experiment is HBV. Put plainly: HBV-DNA Antiviral Assay Using HepG2.117 Cells (intracellular HBV DNA by qPCR). It is filed as cell-based, hepatitis B virus (genotype D). The note with it: Hepatitis B virus, HepG2.117. The method, boiled down:
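HepG2.117 cells (genotype D HBV, Tet-off) were induced by doxycycline withdrawal and treated for 3 days with 9 concentrations in 4-fold dilution, 2% DMSO final. Intracellular HBV DNA was measured by qPCR against a standard curve, with ATPlite viability read in parallel. EC50, EC90 and CC50 came from fits against the DMSO control.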
A general note: Quantitative PCR measures a nucleic acid by following its amplification.
Molecule `CC(C)(C)Oc1ccc(-n2c(C(=O)NCc3ccccc3)c3n(c2=O)CCN(C(=O)c2ccc(Br)c(Cl)c2)C3)cc1` [Example 396, N-benzyl-7-(4-bromo-3-chloro-benzoyl)-2-(4-tert-butoxyphenyl)-3-oxo-6,8-dihydro-5H-imidazo[1,5-a]pyrazine-1-carboxamide] had a pEC50 of 6.30 to 7.00.

With `CC1(C)C(=O)Nc2ccc(-n3c(C(=O)NCc4ccccc4)c4n(c3=O)CCN(C(=O)c3ccc(Br)c(Cl)c3)C4)cc21` [Example 397, N-benzyl-7-(4-bromo-3-chloro-benozyl)-2-(3,3-dimethyl-2-oxo-indolin-5-yl)-3-oxo-6,8-dihydro-5H-imidazo[1,5-a]pyrazine-1-carboxamide], the pEC50 was 5.30 to 6.30.

Consider `O=C(NCc1ccccc1-c1cocn1)c1c2n(c(=O)n1-c1ccc(OC3CC3)cc1)CCN(C(=O)c1ccc(Br)c(Cl)c1)C2` [Example 398, 7-(4-bromo-3-chloro-benzoyl)-2-[4-(cyclopropxy)phenyl]-N-[(2-oxazol-4-ylphenyl)methyl]-3-oxo-6,8-dihydro-5H-imidazo[1,5-a]pyrazine-1-carboxamide], for which the pEC50 is greater than 7.00.

`Cn1cnc2c(CNC(=O)c3c4n(c(=O)n3-c3ccc(OC5CC5)cc3)CCN(C(=O)c3ccc(Br)c(Cl)c3)C4)cccc21` [Example 399, 7-(4-bromo-3-chloro-benzoyl)-2-[4-(cyclopropoxy)phenyl]-N-[(1-methylbenzimidazol-4-yl)methyl]-3-oxo-6,8-dihydro-5H-imidazo[1,5-a]pyrazine-1-carboxamide] had a pEC50 of 6.30 to 7.00.

As for `Cn1cnc2c(CNC(=O)c3c4n(c(=O)n3-c3ccc(OCC(F)(F)F)cc3)CCN(C(=O)c3ccc(Br)c(Cl)c3)C4)cccc21` [Example 400, 7-(4-bromo-3-chloro-benzoyl)-N-[(1-methylbenzimidazol-4-yl)methyl]-3-oxo-2-[4-(2,2,2-trifluoroethoxy)phenyl]-6,8-dihydro-5H-imidazo[1,5-a]pyrazine-1-carboxamide], the pEC50 was 6.30 to 7.00.

On to `O=C(NCc1ccccc1-c1cnccn1)c1c2n(c(=O)n1-c1ccc(OC3CC3)cc1)CCN(C(=O)c1ccc(Br)c(Cl)c1)C2` [Example 401, 7-(4-bromo-3-chloro-benzoyl)-2-[4-(cyclopropoxy)phenyl]-3-oxo-N-[(2-pyrazin-2-ylphenyl)methyl]-6,8-dihydro-5H-imidazo[1,5-a]pyrazine-1-carboxamide], for which the pEC50 was greater than 7.00.

In turn, `O=C(NCc1ccccc1-c1cnccn1)c1c2n(c(=O)n1-c1ccc(OCC(F)(F)F)cc1)CCN(C(=O)c1ccc(Br)c(Cl)c1)C2` [Example 402, 7-(4-bromo-3-chloro-benzoyl)-3-oxo-N-[(2-pyrazin-2-ylphenyl)methyl]-2-[4-(2,2,2-trifluoroethoxy)phenyl]-6,8-dihydro-5H-imidazo[1,5-a]pyrazine-1-carboxamide] had a pEC50 greater than 7.00.

For `O=C1CCc2cc(-n3c(C(=O)NCc4ccccc4)c4n(c3=O)CCN(C(=O)c3ccc(Br)c(Cl)c3)C4)ccc2N1` [Example 403, N-benzyl-7-(4-bromo-3-chloro-benzoyl)-3-oxo-2-(2-oxo-3,4-dihydro-1H-quinolin-6-yl)-6,8-dihydro-5H-imidazo[1,5-a]pyrazine-1-carboxamide], the pEC50 was 5.30 to 6.30.

In turn, `O=C1COc2cc(-n3c(C(=O)NCc4ccccc4)c4n(c3=O)CCN(C(=O)c3ccc(Br)c(Cl)c3)C4)ccc2N1` [Example 404, N-benzyl-7-(4-bromo-3-chloro-benzoyl)-3-oxo-2-(3-oxo-4H-1,4-benzoxazin-7-yl)-6,8-dihydro-5H-imidazo[1,5-a]pyrazine-1-carboxamide] gave a pEC50 of 5.30 to 6.30.

`CC(C)Oc1ccc(-n2c(C(=O)NCc3ccc(C(C)(C)O)cc3)c3n(c2=O)CCN(C(=O)c2ccc(Br)c(Cl)c2)C3)cc1` [Example 407, 7-(4-bromo-3-chloro-benzoyl)-N-[[4-(1-hydroxy-1-methyl-ethyl)phenyl]methyl]-2-(4-isopropoxyphenyl)-3-oxo-6,8-dihydro-5H-imidazo[1,5-a]pyrazine-1-carboxamide] gave a negative logarithm of the EC50 (pEC50) greater than 7.00.

In the case of `O=C(NCc1ccccc1)c1c2n(c(=O)n1-c1ccc3cn[nH]c3c1)CCN(C(=O)c1ccc(Br)c(Cl)c1)C2` [Example 408, N-benzyl-7-(4-bromo-3-chloro-benzoyl)-2-(1H-indazol-6-yl)-3-oxo-6,8-dihydro-5H-imidazo[1,5-a]pyrazine-1-carboxamide], the pEC50 was 6.30 to 7.00.

On to `CC1(C)CN(c2ccc(-n3c(C(=O)NCc4ccccc4)c4n(c3=O)CCN(C(=O)c3ccc(Br)c(Cl)c3)C4)cc2)CCO1` [Example 410, N-benzyl-7-(4-bromo-3-chloro-benzoyl)-2-[4-(2,2-dimethylmorpholin-4-yl)phenyl]-3-oxo-6,8-dihydro-5H-imidazo[1,5-a]pyrazine-1-carboxamide], for which the pEC50 is 6.30 to 7.00.

In the case of `Cc1nc2c(CNC(=O)c3c4n(c(=O)n3-c3ccc(OCC(F)(F)F)cc3)CCN(C(=O)c3ccc(Br)c(Cl)c3)C4)cccc2o1` [Example 411, 7-(4-bromo-3-chloro-benzoyl)-N-[(2-methyl-1,3-benzoxazol-4-yl)methyl]-3-oxo-2-[4-(2,2,2-trifluoroethoxy)phenyl]-6,8-dihydro-5H-imidazo[1,5-a]pyrazine-1-carboxamide], the pEC50 is 6.30 to 7.00.

On to `O=C(NCc1ccccc1)c1c2n(c(=O)n1-c1ccc(N3CCCC3=O)cc1)CCN(C(=O)c1ccc(Br)c(Cl)c1)C2` [Example 412, N-benzyl-7-(4-bromo-3-chloro-benzoyl)-3-oxo-2-[4-(2-oxopyrrolidin-1-yl)phenyl]-6,8-dihydro-5H-imidazo[1,5-a]pyrazine-1-carboxamide], for which the pEC50 is 6.30 to 7.00.

`O=C(NCc1ccccc1)c1c2n(c(=O)n1-c1ccc(N3CCO[C@H](C(F)(F)F)C3)cc1)CCN(C(=O)c1ccc(Br)c(Cl)c1)C2` [Example 415, N-benzyl-7-(4-bromo-3-chloro-benzoyl)-2-[4-(2,2-difluoro-1λ^2-fluora-8-oxa-5-azaspiro[2.5]octan-5-yl)phenyl]-3-oxo-6,8-dihydro-5H-imidazo[1,5-a]pyrazine-1-carboxamide] had a pEC50 of 6.30 to 7.00.

Molecule `Cc1nc2cc(-n3c(C(=O)NCc4ccccc4)c4n(c3=O)CCN(C(=O)c3ccc(Br)c(Cl)c3)C4)ccc2o1` [Example 418, N-benzyl-7-(4-bromo-3-chloro-benzoyl)-2-(2-methyl-1,3-benzoxazol-5-yl)-3-oxo-6,8-dihydro-5H-imidazo[1,5-a]pyrazine-1-carboxamide] gave a pEC50 of 6.30 to 7.00.

Consider `O=C(NCc1ccccc1)c1c2n(c(=O)n1-c1ccc(N3CCC3=O)cc1)CCN(C(=O)c1ccc(Br)c(Cl)c1)C2` [Example 419, N-benzyl-7-(4-bromo-3-chloro-benzoyl)-3-oxo-2-[4-(2-oxoazetidin-1-yl)phenyl]-6,8-dihydro-5H-imidazo[1,5-a]pyrazine-1-carboxamide], for which the pEC50 was 5.30 to 6.30.

As to `O=C(NCc1ccccc1-n1cc(F)cn1)c1c2n(c(=O)n1-c1ccc(OC3CC3)cc1)CCN(C(=O)c1ccc(Br)c(Cl)c1)C2` [Example 421, 7-(4-bromo-3-chloro-benzoyl)-2-[4-(cyclopropoxy)phenyl]-N-[[2-(4-fluoropyrazol-1-yl)phenyl]methyl]-3-oxo-6,8-dihydro-5H-imidazo[1,5-a]pyrazine-1-carboxamide], the pEC50 is greater than 7.00.

`O=C(NCc1ccccc1-n1cncn1)c1c2n(c(=O)n1-c1ccc(OC3CC3)cc1)CCN(C(=O)c1ccc(Br)c(Cl)c1)C2` [Example 422, 7-(4-bromo-3-chloro-benzoyl)-2-[4-(cyclopropoxy)phenyl]-3-oxo-N-[[2-(1,2,4-triazol-1-yl)phenyl]methyl]-6,8-dihydro-5H-imidazo[1,5-a]pyrazine-1-carboxamide] gave a pEC50 greater than 7.00.

`O=C(NCc1ccccc1-c1ccncn1)c1c2n(c(=O)n1-c1ccc(OCC(F)(F)F)cc1)CCN(C(=O)c1ccc(Br)c(Cl)c1)C2` [Example 423, 7-(4-bromo-3-chloro-benzoyl)-3-oxo-N-[(2-pyrimidin-4-ylphenyl)methyl]-2-[4-(2,2,2-trifluoroethoxy)phenyl]-6,8-dihydro-5H-imidazo[1,5-a]pyrazine-1-carboxamide]: the pEC50 was greater than 7.00.

For the molecule `O=C(NCc1ccccc1-c1ccncn1)c1c2n(c(=O)n1-c1ccc(OC3CC3)cc1)CCN(C(=O)c1ccc(Br)c(Cl)c1)C2` [Example 424, 7-(4-bromo-3-chloro-benzoyl)-2-[4-(cyclopropoxy)phenyl]-3-oxo-N-[(2-pyrimidin-4-ylphenyl)methyl]-6,8-dihydro-5H-imidazo[1,5-a]pyrazine-1-carboxamide], the pEC50 is greater than 7.00.

For `O=C(NCc1ccccc1-c1ncc[nH]1)c1c2n(c(=O)n1-c1ccc(OCC(F)(F)F)cc1)CCN(C(=O)c1ccc(Br)c(Cl)c1)C2` [Example 425, 7-(4-bromo-3-chloro-benzoyl)-N-[[2-(1H-imidazol-2-yl)phenyl]methyl]-3-oxo-2-[4-(2,2,2-trifluoroethoxy)phenyl]-6,8-dihydro-5H-imidazo[1,5-a]pyrazine-1-carboxamide], the pEC50 was greater than 7.00.

In the case of `N#Cc1cc(C(=O)N2CCn3c(c(C(=O)NCc4ccccc4-c4ncccn4)n(-c4ccc(-n5cccn5)cc4)c3=O)C2)ccc1Br` [Example 426, 7-(4-bromo-3-cyano-benzoyl)-3-oxo-2-(4-pyrazol-1-ylphenyl)-N-[(2-pyrimidin-2-ylphenyl)methyl]-6,8-dihydro-5H-imidazo[1,5-a]pyrazine-1-carboxamide], the pEC50 was 6.30 to 7.00.

Molecule `O=C(NCc1ccccc1)c1c2n(c(=O)n1-c1ccc(-n3cc(F)cn3)cc1)CCN(C(=O)c1ccc(Br)c(Cl)c1)C2` [Example 427, N-benzyl-7-(4-bromo-3-chloro-benzoyl)-2-[4-(4-fluoropyrazol-1-yl)phenyl]-3-oxo-6,8-dihydro-5H-imidazo[1,5-a]pyrazine-1-carboxamide] had a pEC50 of 6.30 to 7.00.
